According to US20260151410A1, “Tetrahydronaphthyridine Derivatives, Medicine Prepared Therefrom, and Applications Thereof in Preventing and Treating Adhesion-related Diseases” (SCINNOHUB PHARMACEUTICAL CO., LTD, priority 2022, published 2026):
Like-named read-outs stand apart in the source and are kept apart here.

Experiments:
[1] = system: total proteases in the homogenate of the jejunal segment of the small intestine of rats; assay: Inhibition of total proteases in rat small intestine (jejunum) homogenate, fluorescent protease activity kit; format: biochemical; conditions: ΔRFU within 30 minutes
Excerpt: The purpose is to determine the inhibitory activity of the compounds of the present disclosure on total proteases in the homogenate of the jejunal segment of the small intestine of rats.
• a) Preparation of rat intestinal homogenate and protein quantification • i. Tissue sampling: The experimental animals were anesthetized and bled to death. The small intestine was folded in half from the ileocecal junction to the duodenum at the lower end of the stomach, and the jejunum in the middle with a size of about 4 cm was taken; after washing with a 0.9% sodium chloride solution, it was quickly frozen in liquid nitrogen and then transferred to −80° C. for storage; • ii. […] The total protein of the homogenate was quantified using the BCA protein concentration assay kit according to the instructions. • b) Inhibitory activity test of compound • i. […]
• v. […] The fluorescence signals at FI=Ex 485/Em 520 nm were detected continuously within 30 minutes (once every 5 minutes) using a kinetic mode. • c) Data analysis
The difference between fluorescence signals within 30 minutes was calculated and recorded as ΔRFU. […]
The inhibitory effect of the compounds of the present disclosure on the total proteases in the rat small intestine homogenate was determined by the above test, and the measured IC50 values were as follows.

[2] = system: postoperative intra-abdominal adhesions; conditions: for extent (and locations) of intra-abdominal adhesions compared with the model group: rats, single gavage 12 mL/kg 2 hours before operation, 7 days after operation
Experimental: Seventy male SPF SD rats, 220±20 g each, were purchased from Beijing Vital River Experimental Animal Technology Co., Ltd. After 2 weeks of adaptive feeding in the laboratory, the animals were numbered by ear tags and randomized into 7 groups, with […] in each group.
The positive drug was tranexamic acid (TXA).
An amount of the positive drug tranexamic acid (TXA) was weighed and added with the electrolyte solution to prepare 64 mM and 21 mM solutions.
The animals were given a single dose at 12 mL/kg by oral gavage 2 hours before the laparotomy operation. The animals in the sham operation group and the model group were given the solvents.
The animals were fasted but water was given before the operation (>12 hours). The abdomen was locally depilated after inhalation anesthesia and disinfected with iodophor solution. An incision with the size of 3 cm was made in the midline area of the abdomen of the experimental animal using a scalpel, and the cecum was taken out. The serosal layer on each side of the ileocecal region was repeatedly rubbed with sterile gauze until there were needle-like bleeding points on the surface, forming a damaged wound inside and outside of the cecum. The cecum was returned back to the abdominal cavity. The abdominal cavity was closed, sutured layer by layer with surgical sutures, and disinfected. The entire operation should be performed aseptically. The experimental operations were carried out for 4 animals in each group. In the sham operation group, the animal's abdomens were opened only without damaging the cecum.
The animals were dissected and observed 7 days after the operation.
The intestinal adhesions were scored using the Phillips grading method.

MMP9 = MMP9 (Homo sapiens, UniProt P14780); assay: Inhibition of recombinant human protease MMP9, fluorescence assay; format: biochemical
Experimental: (§1) The purpose is to determine the inhibitory activity of the compounds of the present disclosure on recombinant human proteases Trypsin, MMP9, and TACE.
(§2) • Trypsin: 100 mM Tris-HCl, 75 mM NaCl, 2.5 mM CaCl2, 10 mM Cysteine, pH 7.5 • MMP9: 50 mM Tris, 10 mM CaCl2), 150 mM NaCl, 0.05% Brij-35 (w/v), pH7.5 • TACE: 25 mM Tris, 2.5 μM ZnCl2, 0.005% Brij-35 (w/v), pH 9.0 […]
(§3) The inhibitory effect of the compounds of the present disclosure on the above three proteases was determined by the above test, and the measured IC50 values were as follows.

TACE(ADAM17) = TACE(ADAM17) (Homo sapiens, UniProt P78536); assay: Inhibition of recombinant human protease TACE, fluorescence assay; format: biochemical
Experimental: as §1, §2, §3

[3] = system: postoperative intestinal adhesions; assay: Abdominal adhesion model by the file method (cecal friction), Phillips grading; format: in vivo, SD rats; conditions: rats; gavage 2% solution 12 mL/kg 2 hours before operation + peritoneal irrigation 1% solution 2 mL/animal; 7th day after operation
Excerpt: • 3.1 Experimental animals: The male SPF SD rats (220 g each) were purchased from the Experimental Animal Center of Hangzhou Medical College and passed the inspection of Zhejiang Provincial Experimental Animal Quality Supervision and Inspection Station. […] The solvent used for intragastric administration was compound polyethylene glycol electrolyte solution; the solvent used for irrigation administration was sterile saline solution. • 3.3 Preparation of solvent: One bag of compound polyethylene glycol electrolyte solution (68.56 g) was dissolved in 1 L of pure water, and is further added with 44 g of glucose (containing water) to make the glucose content of 4% (w/v) in the solvent. The prepared solvent was stored at 2-8° C. and used within one week. • 3.4 Preparation of intragastric solution: An amount of test sample was weighed and added with an appropriate amount of sterile ultrapure water to prepare a 20% (w/v) stock solution, then an equivalent amount of NaOH was added to adjust the pH to neutral until completely dissolved (the pH value was measured). […]

Sequence of MMP9 (P14780 94-707): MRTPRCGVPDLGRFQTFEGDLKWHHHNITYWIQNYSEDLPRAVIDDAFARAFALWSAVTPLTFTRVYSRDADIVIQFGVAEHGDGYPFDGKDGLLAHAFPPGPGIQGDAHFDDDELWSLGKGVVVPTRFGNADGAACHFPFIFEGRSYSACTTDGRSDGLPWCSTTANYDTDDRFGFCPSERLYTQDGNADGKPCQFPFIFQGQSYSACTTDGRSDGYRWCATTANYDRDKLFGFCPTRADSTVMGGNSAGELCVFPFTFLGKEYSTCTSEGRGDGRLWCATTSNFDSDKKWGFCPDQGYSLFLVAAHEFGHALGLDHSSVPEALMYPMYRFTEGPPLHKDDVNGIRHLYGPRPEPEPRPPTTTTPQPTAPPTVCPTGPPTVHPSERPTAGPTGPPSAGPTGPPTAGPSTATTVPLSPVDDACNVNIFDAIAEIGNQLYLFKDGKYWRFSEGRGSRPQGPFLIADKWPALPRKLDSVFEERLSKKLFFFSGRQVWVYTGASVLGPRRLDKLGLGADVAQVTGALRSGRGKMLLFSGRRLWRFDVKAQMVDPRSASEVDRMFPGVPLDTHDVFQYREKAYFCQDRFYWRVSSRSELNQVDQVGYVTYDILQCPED
Sequence of TACE(ADAM17) (P78536 215-824): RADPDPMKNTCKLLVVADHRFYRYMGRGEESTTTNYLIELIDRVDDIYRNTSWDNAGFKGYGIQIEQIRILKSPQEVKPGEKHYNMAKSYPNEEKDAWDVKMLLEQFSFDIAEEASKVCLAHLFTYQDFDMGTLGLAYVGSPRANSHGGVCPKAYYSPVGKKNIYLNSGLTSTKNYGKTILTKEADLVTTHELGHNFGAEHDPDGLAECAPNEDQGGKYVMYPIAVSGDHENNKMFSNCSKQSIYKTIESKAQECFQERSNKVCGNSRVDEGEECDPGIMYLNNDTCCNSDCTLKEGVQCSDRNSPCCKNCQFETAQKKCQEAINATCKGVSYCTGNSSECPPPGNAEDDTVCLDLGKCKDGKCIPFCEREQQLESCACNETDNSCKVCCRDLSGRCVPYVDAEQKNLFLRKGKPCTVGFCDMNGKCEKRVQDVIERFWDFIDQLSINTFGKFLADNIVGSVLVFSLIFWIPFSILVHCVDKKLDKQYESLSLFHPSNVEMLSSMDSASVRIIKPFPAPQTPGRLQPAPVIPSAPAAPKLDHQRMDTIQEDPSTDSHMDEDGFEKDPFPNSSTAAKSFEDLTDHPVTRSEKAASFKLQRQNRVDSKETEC

| Structure (SMILES) | IC50 [1] | extent (and locations) of intra-abdominal adhesions compared with the model group ([2]; 21 mM solution) | extent (and locations) of intra-abdominal adhesions compared with the model group ([2]; 64 mM solution) | IC50 (MMP9; recombinant human MMP9 0.2 μg/mL, substrate 10 μM, room temperature 30 minutes, read-out: IC50 MMP9) | IC50 (TACE(ADAM17); recombinant human TACE 0.2 μg/mL, substrate 20 μM, room temperature 30 minutes, read-out: IC50 TACE(ADAM17)) | animals with quantity and extent of intestinal adhesions significantly improved compared with the model group [3] | IC50 (MMP9) | IC50 (TACE(ADAM17)) | animal deaths after the operation ([2]; rat, in vivo) |
| --- | --- | --- | --- | --- | --- | --- | --- | --- | --- |
| Cl.O=C(O)c1ccc2c(n1)CCNC2 [Preparative example 1, 5,6,7,8-tetrahydro-1,6-naphthyridine-2-carboxylic acid hydrochloride] | 13.4 mM | reduced | reduced significantly | 6.56 mM | 5.43 mM |  |  |  |  |
| Cl.O=P(O)(O)c1ccc2c(n1)CCNC2 [Preparative example 2, (5,6,7,8-tetrahydro-1,6-naphthyridin-2-yl) phosphonic acid hydrochloride] | 17.9 mM |  | improved to a certain extent |  |  | more than 80% | ~25 mM | 7.38 mM |  |
| NC[C@H]1CC[C@H](C(=O)O)CC1 [tranexamic acid, reference compound] |  | exhibited an alleviating trend | significantly alleviated |  |  |  |  |  | one animal died |
